# Source: US10287251B2, “Pyrazole derivative or pharmaceutically acceptable salt thereof” (KISSEI PHARMACEUTICAL CO., LTD., priority 2015, dated 2019)
# Target: T1, TRPM8 (Rattus norvegicus, UniProt Q8R455)
# T1 construct: from tissue; host or cells: whole animal, female SD rats (in vivo)
# Test: Confirmation test of inhibitory effects on icilin-induced wet-dog shakes
# Format: in vivo
# Conditions: female SD rats, oral dose 1 mg/kg, icilin 1 mg/kg i.p. 1 hour after dosing, shakes counted for 5 minutes
# Excerpt: Further, TRPM8 inhibitory activity can be evaluated by the efficacy inhibiting the wet-dog shake action which is induced by the administration of Icilin, TRPM8 agonist. Furthermore, an effect on overactive bladder (OAB) can be evaluated by an elongation of micturition interval against overactive bladder induced by acetic acid in accordance with a similar method described in J. Urol., 2001, 166, 1142.
# Confirmation Test of Inhibitory Effects on Icilin-induced Wet-dog Shakes
# Test compounds were dissolved in dimethylacetamide (wako), and 0.5% methylcellulose solution (wako) was added to make the solution or suspension containing 5% of dimethylacetatnide. At a dose of 0.3 to 10 mg/kg/5mL of test compounds were orally administered to female SD rats. After 1 hour, wet-dog shakes were induced by the intraperitoneal injection of icilin (1 mg/kg) which was dissolved in polyethylene glycol 400 (wako). From 5 minutes after the administration of icilin, wet-dog shakes were counted for 5 minutes. For control example, vehicle (a mixture of dimethylacetamide (wako): 0.5% methylcellulose (wako)=5:95) was administrated similarly, and the number of wet-dog shakes was counted in the same manner. A percent inhibition of wet-dog shakes by test compound was calculated from the following formula: [1-(test compound wet-dog shake count/vehicle wet-dog shake count)]×100.
# T1 sequence (Q8R455 whole entry): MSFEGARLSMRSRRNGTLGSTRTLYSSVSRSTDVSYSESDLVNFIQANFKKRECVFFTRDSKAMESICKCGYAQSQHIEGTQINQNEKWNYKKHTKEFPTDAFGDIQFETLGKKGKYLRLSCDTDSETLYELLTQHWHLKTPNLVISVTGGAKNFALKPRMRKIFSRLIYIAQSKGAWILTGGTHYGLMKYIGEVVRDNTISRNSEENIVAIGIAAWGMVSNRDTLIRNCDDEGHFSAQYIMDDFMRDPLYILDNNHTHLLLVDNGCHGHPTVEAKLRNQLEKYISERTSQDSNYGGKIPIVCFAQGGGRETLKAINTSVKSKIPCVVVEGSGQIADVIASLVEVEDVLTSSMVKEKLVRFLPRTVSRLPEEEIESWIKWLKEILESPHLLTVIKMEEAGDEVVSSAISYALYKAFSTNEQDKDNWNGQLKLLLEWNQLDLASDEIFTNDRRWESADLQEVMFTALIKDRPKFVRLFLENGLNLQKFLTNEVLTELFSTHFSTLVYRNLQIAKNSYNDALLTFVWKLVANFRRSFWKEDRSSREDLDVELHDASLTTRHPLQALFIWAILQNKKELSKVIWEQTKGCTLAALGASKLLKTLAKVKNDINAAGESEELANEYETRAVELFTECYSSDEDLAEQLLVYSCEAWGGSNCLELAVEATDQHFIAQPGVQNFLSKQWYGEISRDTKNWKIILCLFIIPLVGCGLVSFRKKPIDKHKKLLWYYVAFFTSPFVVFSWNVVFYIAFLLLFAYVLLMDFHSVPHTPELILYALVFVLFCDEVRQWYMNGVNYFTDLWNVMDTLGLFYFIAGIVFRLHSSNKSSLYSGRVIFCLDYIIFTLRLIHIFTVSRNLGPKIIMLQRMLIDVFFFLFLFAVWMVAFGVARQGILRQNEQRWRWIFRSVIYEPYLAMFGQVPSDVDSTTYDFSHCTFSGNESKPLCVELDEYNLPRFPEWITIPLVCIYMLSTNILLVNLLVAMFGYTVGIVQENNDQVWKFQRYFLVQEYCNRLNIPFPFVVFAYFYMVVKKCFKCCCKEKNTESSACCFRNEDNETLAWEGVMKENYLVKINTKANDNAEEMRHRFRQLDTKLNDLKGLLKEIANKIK
row,% inhibition of Wet-Dog Shake [%],Structure (SMILES)
1,50,O=C(N[C@@H](CO)Cc1ccccn1)c1ccccc1-c1n[nH]c(-c2ccc(F)cc2)c1F [Example 1-97]
2,38,CC(CO)[C@@H](Cc1ccccn1)NC(=O)c1cccc(F)c1-c1cc(-c2ccc(F)cc2)[nH]n1 (stereo partly shown) [Example 1-164]
3,65,O=C(N[C@@H](CO)Cc1ncccc1F)c1cccc(F)c1-c1cc(-c2ccc(F)cc2)[nH]n1 [Example 1-167]
4,85,O=C(N[C@@H](CCO)Cc1ccccn1)c1ccccc1-c1n[nH]c(-c2ccc(F)cc2)c1F [Example 1-173]
5,68,COC[C@@H](O)[C@@H](Cc1ccccn1)NC(=O)c1cccc(F)c1-c1n[nH]c(-c2ccc(F)cc2)c1F [Example 1-213]

# Same assay, conditions: female SD rats, oral dose 3 mg/kg, icilin 1 mg/kg i.p. 1 hour after dosing, shakes counted for 5 minutes
row,% inhibition of Wet-Dog Shake [%],Structure (SMILES)
1,70,"O=C(N[C@@H](CO)C(O)c1ccccn1)c1cccc(F)c1-c1cc(-c2ccc(F)cc2)[nH]n1 (single isomer, unassigned) [Example 54-1]"
2,48,"O=C(N[C@@H](CO)C(O)c1ccccn1)c1cccc(F)c1-c1cc(-c2ccc(F)cc2)[nH]n1 (single isomer, unassigned) [Example 54-2]"
3,66,O=C(N[C@@H](CO)Cc1ccccn1)c1ccccc1-c1cc(-c2ccc(F)c(F)c2)[nH]n1 [Example 1-29]
4,46,O=C(N[C@@H](CO)Cc1ccccn1)c1ccccc1-c1cc(-c2ccc(Cl)cc2)[nH]n1 [Example 1-59]
5,55,O=C(N[C@@H](CO)Cc1ccccc1)c1ccccc1-c1cc(-c2ccc(F)c(F)c2)[nH]n1 [Example 1-62]
6,69,O=C(N[C@@H](CO)Cc1ccccn1)c1cccc(OC(F)(F)F)c1-c1cc(-c2ccc(F)cc2)[nH]n1 [Example 1-64]
7,41,O=C(N[C@@H](CO)Cc1ccccc1)c1cccc(F)c1-c1cc(-c2ccccc2)[nH]n1 [Example 1-68]
8,76,O=C(N[C@@H](CO)Cc1ccccc1)c1cccc(F)c1-c1cc(-c2ccc(F)cc2)[nH]n1 [Example 1-86]
9,45,O=C(N[C@@H](CO)Cc1ccccn1)c1cccc(Cl)c1-c1cc(-c2ccc(F)cc2)[nH]n1 [Example 1-103]
10,60,C[C@H](O)[C@@H](Cc1ccccc1)NC(=O)c1cccc(F)c1-c1cc(-c2ccc(F)cc2)[nH]n1 [Example 1-104]
11,90,O=C(N[C@@H](CO)Cc1ccccn1)c1cccc(F)c1-c1n[nH]c(-c2ccc(F)cc2)c1F [Example 1-105]
12,61,COc1cccnc1C[C@H](CCO)NC(=O)c1cccc(F)c1-c1cc(-c2ccc(F)cc2)[nH]n1 [Example 1-108]
13,98,CC(O)[C@@H](Cc1ccccn1)NC(=O)c1cccc(F)c1-c1cc(-c2ccc(F)cc2)[nH]n1 (stereo partly shown) [Example 1-113]
14,46,Cc1cccnc1C[C@H](CCO)NC(=O)c1cccc(F)c1-c1cc(-c2ccc(F)cc2)[nH]n1 [Example 1-117]
15,42,CC(O)[C@@H](Cc1ccccn1)NC(=O)c1cccc(F)c1-c1cc(-c2ccc(F)cc2)[nH]n1 (stereo partly shown) [Example 1-124]
16,92,C[C@H](O)C[C@@H](Cc1ccccn1)NC(=O)c1cccc(F)c1-c1cc(-c2ccc(F)cc2)[nH]n1 [Example 1-130]
17,94,O=C(N[C@@H](CCO)Cc1ccccn1)c1cccc(F)c1-c1cc(-c2ccc(Cl)cc2)[nH]n1 [Example 1-131]
18,49,O=C(N[C@@H](CCO)Cc1ccccn1)c1cccc(OC(F)(F)F)c1-c1cc(-c2ccc(F)cc2)[nH]n1 [Example 1-134]
19,84,O=C(N[C@@H](CO)Cc1ccccn1)c1cccc(F)c1-c1cc(-c2ccc(Cl)cc2)[nH]n1 [Example 1-137]
20,100,CC(c1ccccn1)[C@H](CCO)NC(=O)c1cccc(F)c1-c1cc(-c2ccc(F)cc2)[nH]n1 (stereo partly shown) [Example 1-138]
21,75,O=C(N[C@@H](CCO)Cc1ccccn1)c1cccc(F)c1-c1n[nH]c(-c2ccc(Cl)cc2)c1F [Example 1-154]
22,99,O=C(N[C@H](Cc1ccccn1)[C@H](O)CO)c1cccc(F)c1-c1n[nH]c(-c2ccc(F)cc2)c1F [Example 1-156]

row,% inhibition of Wet-Dog Shake [%],Structure (SMILES)
1,48,CC(CO)[C@@H](Cc1ccccn1)NC(=O)c1cccc(F)c1-c1cc(-c2ccc(Cl)cc2)[nH]n1 (stereo partly shown) [Example 1-162]
2,34,O=C(N[C@H](Cc1ccccn1)[C@H](O)CO)c1cccc(Cl)c1-c1cc(-c2ccc(F)cc2)[nH]n1 [Example 1-169]
3,60,O=C(N[C@@H](CO)Cc1ncccn1)c1cccc(F)c1-c1cc(-c2ccc(F)cc2)[nH]n1 [Example 1-174]
4,59,O=C(N[C@@H](CO)Cc1nccs1)c1cccc(F)c1-c1cc(-c2ccc(F)cc2)[nH]n1 [Example 1-177]
5,37,O=C(N[C@@H](CO)Cc1cscn1)c1cccc(F)c1-c1cc(-c2ccc(F)cc2)[nH]n1 [Example 1-182]
6,36,Cn1ccnc1C[C@H](CO)NC(=O)c1cccc(F)c1-c1cc(-c2ccc(F)cc2)[nH]n1 [Example 1-183]
7,56,O=C(N[C@H](Cc1ccccn1)[C@H](O)CO)c1ccccc1-c1cc(-c2ccc(F)cc2)[nH]n1 [Example 1-185]
8,31,O=C(N[C@@H](CCO)Cc1ncccn1)c1cccc(F)c1-c1cc(-c2ccc(F)cc2)[nH]n1 [Example 1-191]
9,60,O=C(NCC(O)c1ccccn1)c1cccc(F)c1-c1cc(-c2ccc(F)cc2)[nH]n1 (stereo not shown) [Example 1-194]
10,63,COc1cccnc1C[C@H](CO)NC(=O)c1cccc(F)c1-c1cc(-c2ccc(F)cc2)[nH]n1 [Example 1-196]
11,44,O=C(N[C@@H](CO)Cc1ncccc1C(F)(F)F)c1cccc(F)c1-c1cc(-c2ccc(F)cc2)[nH]n1 [Example 1-197]
12,91,CC(c1ccccn1)[C@H](CO)NC(=O)c1cccc(F)c1-c1cc(-c2ccc(F)cc2)[nH]n1 (stereo partly shown) [Example 1-200]
13,70,O=C(N[C@@H](CO)C(O)c1ccccn1)c1ccccc1-c1n[nH]c(-c2ccc(F)cc2)c1F (stereo partly shown) [Example 1-205]
14,55,O=C(N[C@@H](CCO)C(O)c1ccccn1)c1ccccc1-c1n[nH]c(-c2ccc(F)cc2)c1F (stereo partly shown) [Example 1-206]
15,100,O=C(N[C@@H](CCO)Cc1ccccn1)c1ccccc1-c1cc(-c2ccc(F)cc2)[nH]n1 [Example 1-208]
16,47,O=C(N[C@@H](CO)C(O)c1ccccn1)c1cccc(Cl)c1-c1cc(-c2ccc(F)cc2)[nH]n1 (stereo partly shown) [Example 1-210]
17,75,C[C@](O)(CO)[C@@H](Cc1ccccn1)NC(=O)c1cccc(F)c1-c1cc(-c2ccc(F)cc2)[nH]n1 [Example 1-217]
18,40,C[C@](O)(CO)[C@@H](Cc1ccccn1)NC(=O)c1cccc(Cl)c1-c1cc(-c2ccc(F)cc2)[nH]n1 [Example 1-218]
19,45,C[C@](O)(CO)[C@@H](Cc1ccccn1)NC(=O)c1cccc(F)c1-c1cc(-c2ccc(Cl)cc2)[nH]n1 [Example 1-219]
20,100,O=C(N[C@@H](CCO)Cc1ccccn1)c1ccccc1-c1n[nH]c(-c2ccc(Cl)cc2)c1F [Example 1-223]
21,82,C[C@@](O)(CO)[C@@H](Cc1ccccn1)NC(=O)c1cccc(F)c1-c1cc(-c2ccc(F)cc2)[nH]n1 [Example 1-224]
22,37,C[C@@](O)(CO)[C@@H](Cc1ccccn1)NC(=O)c1cccc(Cl)c1-c1cc(-c2ccc(F)cc2)[nH]n1 [Example 1-225]

# Same assay, conditions: female SD rats, oral dose 10 mg/kg, icilin 1 mg/kg i.p. 1 hour after dosing, shakes counted for 5 minutes
row,% inhibition of Wet-Dog Shake [%],Structure (SMILES)
1,66,O=C(NCCc1ccccn1)c1ccccc1-c1cc(-c2ccccc2)[nH]n1 [Example 1-3]
2,54,NC(=O)[C@@H](Cc1ccccn1)NC(=O)c1ccccc1-c1cc(-c2ccccc2)[nH]n1 [Example 1-15]
3,68,O=C(N[C@@H](CO)Cc1ccccn1)c1ccccc1-c1cc(-c2ccccc2)[nH]n1 [Example 1-27]
4,93,O=C(N[C@@H](CO)Cc1ccccn1)c1cccc(F)c1-c1cc(-c2ccccc2)[nH]n1 [Example 1-69]
5,72,O=C(NC(CCO)Cc1ccccc1)c1ccccc1-c1cc(-c2ccc(F)cc2)[nH]n1 (stereo not shown) [Example 1-76]
6,59,NC(=O)C[C@@H](Cc1ccccc1)NC(=O)c1ccccc1-c1cc(-c2ccc(F)cc2)[nH]n1 [Example 1-77]
7,86,O=C(N[C@@H](CO)Cc1ccccn1)c1ccccc1-c1cc(-c2ccc(Cl)c(F)c2)[nH]n1 [Example 1-85]
8,100,O=C(N[C@@H](CO)Cc1ccccn1)c1c(F)cccc1-c1cc(-c2ccc(F)cc2)[nH]n1 [Example 1-94]
9,59,NC(=O)C[C@@H](Cc1ccccc1)NC(=O)c1cccc(F)c1-c1cc(-c2ccc(F)cc2)[nH]n1 [Example 1-128]
